Measured values: patent US11597702B2, “Substituted pyrazoles FFA4/GPR120 receptor agonists” (AXXAM S.P.A., priority 2018, dated 2023)

target: T1, GPR120 (Homo sapiens, UniProt Q5NUL3); test: GPR120 agonism in CHO mitoPhotinaGPR120 cell based assay with fluorescent (Fluo-8 calcium, FLIPRTetra) readout, Agonist Mode, dose response; conditions: CHO mitoPhotinaGPR120 cells, Fluo-8 No Wash Ca2+ dye, dose response in quadruplicate, 0.0033% fatty acid free BSA
T1 construct: expressed in transfected cells; host or cells: CHO mitoPhotinaGPR120 cells
T1 sequence (Q5NUL3 1-361): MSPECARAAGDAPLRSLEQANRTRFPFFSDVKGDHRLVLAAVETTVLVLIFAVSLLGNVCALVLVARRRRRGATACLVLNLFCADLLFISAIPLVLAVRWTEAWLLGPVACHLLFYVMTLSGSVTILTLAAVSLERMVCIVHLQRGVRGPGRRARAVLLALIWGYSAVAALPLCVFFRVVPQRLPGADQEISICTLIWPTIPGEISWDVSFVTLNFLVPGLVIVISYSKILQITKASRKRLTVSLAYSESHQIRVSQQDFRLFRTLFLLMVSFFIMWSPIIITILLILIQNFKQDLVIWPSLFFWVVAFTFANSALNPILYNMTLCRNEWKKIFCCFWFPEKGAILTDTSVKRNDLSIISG
Procedure: Compounds of the invention were tested for GPR120 agonism in a CHO mitoPhotinaGPR120 cell based assay with fluorescent readout in Agonist Mode in dose response in quadruplicate with intra-plate modality.
Twenty (20) h after seeding, growth medium was manually removed and cells were starved in the presence of 25 μL/w of Standard Tyrode's Buffer. After 3 h, cells were loaded with 20 μL/w of 0.5× Fluo-8 No Wash (AAT Bioquest, Inc.) Ca2+ sensitive dye prepared in Standard Tyrode's Buffer. Cells were incubated for 1 h at room temperature in the dark. Ten (10) μL/w 3× of controls and compounds were diluted in Standard Tyrode's Buffer+0.01% fatty acid free BSA (final concentration=0.0033%) and injected at the FLIPRTetra®, recording the kinetic calcium traces for 3 minutes. Standard Tyrode's buffer composition: 5 mM KCl, 130 mM NaCl, 2 mM CaCl2), 5 mM NaHCO3, 1 mM MgCl2, 20 mM HEPES, pH7.4.

| EC50 [µM] | SMILES |
| --- | --- |
| 1.58 | Cc1ccccc1OCc1c(C#N)c(C)nn1-c1ccc(F)cc1 [Example 86, 1-(4-fluorophenyl)-3-methyl-5-[(2-methylphenoxy)methyl]pyrazole-4-carbonitrile] |
| 0.18 | Cc1nn(-c2ccc(F)cc2)c(COc2ccc(CCCO)cc2)c1C#N [Example 87, 1-(4-fluorophenyl)-5-[[4-(3-hydroxypropyl)phenoxy]methyl]-3-methyl-pyrazole-4-carbonitrile] |
| 11.2 | Cc1nn(Cc2ccccc2)c(COc2ccc(CCO)cc2)c1C#N [Example 88, 1-benzyl-5-[[4-(2-hydroxyethyl)phenoxy]methyl]-3-methyl-pyrazole-4-carbonitrile] |
| 0.99 | Cc1nn(Cc2ccccc2)c(COc2ccc(CCCO)cc2)c1C#N [Example 89, 1-benzyl-5-[[4-(3-hydroxypropyl)phenoxy]methyl]-3-methyl-pyrazole-4-carbonitrile] |
| 0.31 | Cc1nn(Cc2ccccc2)c(COc2c(F)cc(CCCO)cc2F)c1C#N [Example 90, 1-benzyl-5-[[2,6-difluoro-4-(3-hydroxypropyl)phenoxy]methyl]-3-methyl-pyrazole-4-carbonitrile] |
| 16.5 | COc1ccc(Cn2nc(C)c(C#N)c2COc2ccc(CCO)cc2)cc1 [Example 91, 5-[[4-(2-hydroxyethyl)phenoxy]methyl]-1-[(4-methoxyphenyl)methyl]-3-methyl-pyrazole-4-carbonitrile] |
| 3.66 | Cc1nn(-c2ccccc2)c(C(C)Oc2ccc(CCO)cc2)c1C#N (centres unmarked) [Example 92, 5-[1-[4-(2-hydroxyethyl)phenoxy]ethyl]-3-methyl-1-phenyl-pyrazole-4-carbonitrile] |
| 0.33 | Cc1nn(-c2ccccc2)c(C(C)Oc2c(F)cc(CCCO)cc2F)c1C#N (centres unmarked) [Example 93, 5-[1-[2,6-difluoro-4-(3-hydroxypropyl)phenoxy]ethyl]-3-methyl-1-phenyl-pyrazole-4-carbonitrile] |
| 1.35 | Cc1nn(-c2ccccc2)c(C(F)(F)Oc2ccc(CCO)cc2)c1C#N [Example 94, 5-[difluoro-[4-(2-hydroxyethyl)phenoxy]methyl]-3-methyl-1-phenyl-pyrazole-4-carbonitrile] |
| 0.83 | Cc1nn(-c2ccccc2)c(C(F)(F)Oc2ccc(CCCO)cc2)c1C#N [Example 95, 5-[difluoro-[4-(3-hydroxypropyl)phenoxy]methyl]-3-methyl-1-phenyl-pyrazole-4-carbonitrile] |
| 0.52 | Cc1nn(-c2ccccc2)c(C(F)(F)Oc2c(F)cc(CCCO)cc2F)c1C#N [Example 96, 5-[[2,6-difluoro-4-(3-hydroxypropyl)phenoxy]-difluoro-methyl]-3-methyl-1-phenyl-pyrazole-4-carbonitrile] |
| 2.8 | Cc1nn(-c2ccccc2)c(COCc2ccc(C#N)cc2)c1C#N [Example 97, 5-[(4-cyanophenyl)methoxymethyl]-3-methyl-1-phenyl-pyrazole-4-carbonitrile] |
| 9.9 | Cc1nn(-c2ccc(F)cc2)c(COCc2ccccc2)c1C#N [Example 98, 5-(benzyloxymethyl)-1-(4-fluorophenyl)-3-methyl-pyrazole-4-carbonitrile] |
| 1.48 | Cc1nn(-c2cccc(F)c2)c(COc2ccc(CCO)cc2)c1C#N [Example 101, 1-(3-fluorophenyl)-5-[[4-(2-hydroxyethyl)phenoxy]methyl]-3-methyl-pyrazole-4-carbonitrile] |
| 0.53 | Cc1nn(-c2ccccn2)c(COc2ccc(CCO)cc2)c1C#N [Example 102, 5-[[4-(2-hydroxyethyl)phenoxy]methyl]-3-methyl-1-(2-pyridyl)pyrazole-4-carbonitrile] |
| 9.22 | Cc1nn(-c2cccnc2)c(COc2ccc(CCO)cc2)c1C#N [Example 103, 5-[[4-(2-hydroxyethyl)phenoxy]methyl]-3-methyl-1-(3-pyridyl)pyrazole-4-carbonitrile] |

The remaining lines, values behind:

| SMILES | EC50 [µM] |
| --- | --- |
| Cc1nn(-c2ccccc2)c(CSc2ccc(CCO)cc2)c1C#N [Example 59, 5-[[4-(2-hydroxyethyl)phenyl]sulfanylmethyl]-3-methyl-1-phenyl-pyrazole-4-carbonitrile] | 2.63 |
| Cc1nn(-c2ccccc2)c(COc2ccc3n[nH]cc3c2)c1C#N [Example 61, 5-(2~{H}-indazol-5-yloxymethyl)-3-methyl-1-phenyl-pyrazole-4-carbonitrile] | 1.02 |
| Cc1nn(-c2ccccc2)c(COc2ccc3ccncc3c2)c1C#N [Example 62, 5-(7-isoquinolyloxymethyl)-3-methyl-1-phenyl-pyrazole-4-carbonitrile] | 2.6 |
| Cc1nn(-c2ccccc2)c(COc2cccc3cccnc23)c1C#N [Example 63, 3-methyl-1-phenyl-5-(8-quinolyloxymethyl)pyrazole-4-carbonitrile] | 16.4 |
| Cc1nn(-c2ccccc2)c(COc2cccnc2C#N)c1C#N [Example 64, 3-[(4-cyano-5-methyl-2-phenyl-pyrazol-3-yl)methoxy]pyridine-2-carbonitrile] | 19.1 |
| Cc1nn(-c2ccccc2)c(COc2cccnc2F)c1C#N [Example 65, 5-[(2-fluoro-3-pyridyl)oxymethyl]-3-methyl-1-phenyl-pyrazole-4-carbonitrile] | 3.56 |
| Cc1ccncc1OCc1c(C#N)c(C)nn1-c1ccccc1 [Example 68, 3-methyl-5-[(4-methyl-3-pyridyl)oxymethyl]-1-phenyl-pyrazole-4-carbonitrile] | 8.32 |
| Cc1ccc(OCc2c(C#N)c(C)nn2-c2ccccc2)cn1 [Example 69, 3-methyl-5-[(6-methyl-3-pyridyl)oxymethyl]-1-phenyl-pyrazole-4-carbonitrile] | 9.82 |
| Cc1ccnc(C)c1OCc1c(C#N)c(C)nn1-c1ccccc1 [Example 70, 5-[(2,4-dimethyl-3-pyridyl)oxymethyl]-3-methyl-1-phenyl-pyrazole-4-carbonitrile] | 2.3 |
| Cc1nn(-c2ccccc2)c(COc2ccc(F)nc2F)c1C#N [Example 71, 5-[(2,6-difluoro-3-pyridyl)oxymethyl]-3-methyl-1-phenyl-pyrazole-4-carbonitrile] | 5.69 |
| Cc1cccc(-n2nc(C)c(C#N)c2COc2ccc(CCO)cc2)c1 [Example 73, 5-[[4-(2-hydroxyethyl)phenoxy]methyl]-3-methyl-1-(m-tolyl)pyrazole-4-carbonitrile] | 1.98 |
| Cc1ccc(-n2nc(C)c(C#N)c2COc2ccc(CCO)cc2)cc1 [Example 74, 5-[[4-(2-hydroxyethyl)phenoxy]methyl]-3-methyl-1-(p-tolyl)pyrazole-4-carbonitrile] | 0.49 |
| Cc1nn(-c2cccc(Cl)c2)c(COc2ccc(CCO)cc2)c1C#N [Example 75, 1-(3-chlorophenyl)-5-[[4-(2-hydroxyethyl)phenoxy]methyl]-3-methyl-pyrazole-4-carbonitrile] | 4.61 |
| Cc1nn(-c2ccc(Cl)cc2)c(COc2ccc(CCO)cc2)c1C#N [Example 76, 1-(4-chlorophenyl)-5-[[4-(2-hydroxyethyl)phenoxy]methyl]-3-methyl-pyrazole-4-carbonitrile] | 0.76 |
| Cc1nn(-c2cccc(C(F)(F)F)c2)c(COc2ccc(CCO)cc2)c1C#N [Example 77, 5-[[4-(2-hydroxyethyl)phenoxy]methyl]-3-methyl-1-[3-(trifluoromethyl)phenyl]pyrazole-4-carbonitrile] | 9.03 |
| CCc1ccc(-n2nc(C)c(C#N)c2COc2ccc(CCO)cc2)cc1 [Example 78, 1-(4-ethylphenyl)-5-[[4-(2-hydroxyethyl)phenoxy]methyl]-3-methyl-pyrazole-4-carbonitrile] | 0.38 |
| COc1cccc(-n2nc(C)c(C#N)c2COc2ccc(CCO)cc2)c1 [Example 79, 5-[[4-(2-hydroxyethyl)phenoxy]methyl]-1-(3-methoxyphenyl)-3-methyl-pyrazole-4-carbonitrile] | 1.64 |
| COc1ccc(-n2nc(C)c(C#N)c2COc2ccc(CCO)cc2)cc1 [Example 80, 5-[[4-(2-hydroxyethyl)phenoxy]methyl]-1-(4-methoxyphenyl)-3-methyl-pyrazole-4-carbonitrile] | 0.64 |
| Cc1nn(-c2ccccc2F)c(COc2ccc(CCO)cc2)c1C#N [Example 82, 1-(2-fluorophenyl)-5-[[4-(2-hydroxyethyl)phenoxy]methyl]-3-methyl-pyrazole-4-carbonitrile] | 3.41 |
| Cc1nn(-c2ccc(F)cc2)c(COc2ccccc2)c1C#N [Example 83, 1-(4-fluorophenyl)-3-methyl-5-(phenoxymethyl)pyrazole-4-carbonitrile] | 2.22 |
| Cc1nn(-c2ccc(F)cc2)c(COc2ccc(CCO)cc2)c1C#N [Example 84, 1-(4-fluorophenyl)-5-[[4-(2-hydroxyethyl)phenoxy]methyl]-3-methyl-pyrazole-4-carbonitrile] | 1.54 |
| Cc1nn(-c2ccc(F)cc2)c(COc2cccc(F)c2)c1C#N [Example 85, 5-[(3-fluorophenoxy)methyl]-1-(4-fluorophenyl)-3-methyl-pyrazole-4-carbonitrile] | 4.55 |
